According to patent US8877163B2, “Cycloalkyl triamine pentacarboxylate as ligands for paramagnetic metal complexes” (Kaohsiung Medical University, priority 2006, dated 2014):
Like-named read-outs stand apart in the source and are kept apart here. Values belong to the molecule of their own block, whether it stands above or below them.

Assays:
[1] = Stability constants of the gadolinium complex by potentiometric titration (BEST program); format: physicochemical
Text: (§1) Presently, there are two ways for calculating the thermodynamic stability constant of a metal complex by the potentiometric titration. […] The second method is suitable for the metal complex whose disassociation rate is less than 25% at low pH (such as pH 2). Take the metal complex of the present invention for instance, since it is not able to form a complex with the ligand at a pH value around 2, the thermodynamic stability constant thereof must be calculated by the previous method. The equation for the thermodynamic stability constant is defined as follows: [formula] where M represents the metal ion, L represents the ligand, and ML represents the metal complex. […] The thermodynamic stability constants for the metal complexes with CB-TTDA are determined from the titration data with the FORTRAN computer program BEST as shown in Table 2 with the reported thermodynamic stability constants of TTDA and DTPA, which are respectively reported by Y M. Wang et al., Inorganic Chemistry, vol. 44, page 382, 2005 and by P. Caravan et al., Inorganic Chemistry, vol. 44, page 2170, 2001. The conditional stability constant (Kcond) specifies the degree of metal chelation at a given pH and is defined as follows: […] [formula] where LT is the total concentration of the uncomplexed ligand, which is defined by the following equation: […]

[2] = Stability constants of the copper complex by potentiometric titration (BEST program); format: physicochemical
Text: as §1

[3] = Stability constants of the calcium complex by potentiometric titration (BEST program); format: physicochemical
Text: as §1

[4] = Stability constants of the zinc complex by potentiometric titration (BEST program); format: physicochemical
Text: as §1

[5] = Selectivity constant and modified selectivity constant of the gadolinium complex; format: physicochemical
Text: The selectivity constant is used only for showing the difference between the gadolinium complex and other metal complexes. However, due to the coexistence of the zinc ion, the calcium ion and the copper ion in vivo, all the following factors, which are the pH value, the protonation constant for the ligand, the concentrations of the metal ions (Zn^2+, Ca^2+, Cu^2+) and the stability constants for Gd^3+, Zn^2+, Ca^2+ and Cu^2+ complexes should be considered for obtaining the selectivity constant with a new definition, called modified selectivity constant (Ksel′) and defined by the following equation: Ksel′=Ktherm(αH^−1+αCaL^−1+αCuL^−1+αZnL^−1)^−1, where αH^−1=1+K1^H[H^+]+K1^HK2^H [H^+]^++ . . .; αCaL^−1=1+KCaL[Ca^2+]; αCuL^−1=1+KCuL[Cu^2+]; αZnL^−1=1+KZnL[Zn^2+]; and thus the modified selectivity constant of the gadolinium complex at the biological pH (7.4) could be calculated by the mentioned equation (the value of the conditional stability constant is calculated previously, and the concentrations of the zinc, the calcium and the copper ions are 50 μM, […] and 1 μm, respectively).

[6] = Protonation constants by potentiometric titration (PKAS program); format: physicochemical; settings: for ΣpKa: sum of the four protonation constants
Description: Firstly, the ligands (HnL) are deprotoned (L^n−) by treating them with the alkaline solution. After that, a slow addition of the acidic solution for associating the deprotonated ligand with the protons (H^+) is performed, and thus protonated organic ligands are formed. The equation for the protonation constant is shown as follows:
Please refer to FIG. 2, which is a potentiometric titration curve for CB-TTDA (the ionic strength I=0.1 M Me4NCl and the temperature T=25.0±0.1° C.) measured by an automatic titrator system. The protonation constants for the CB-TTDA are determined from the titration data with the FORTRAN computer program PKAS as shown in Table 1.

[7] = reported values; cited from earlier work
[8] = I = 0.1 M Me4NCl, T = 25.0 ± 0.1° C.; reported values; cited from earlier work
[9] = I = 0.1 M Me4NCl, T = 25.0 ± 0.1° C.; reported values; cited from earlier work; remark: listed apart in the source
[10] = I = 0.1 M Me4NCl, T = 25.0 ± 0.1° C.; reported values; cited from earlier work; remark: listed apart in the source
[11] = I = 0.1 M Me4NCl, T = 25.0 ± 0.1° C.; reported values; cited from earlier work; remark: listed apart in the source
[12] = after removal of the galactopyranoside by β-gal; cited from earlier work
human serum albumin = human serum albumin (Homo sapiens, UniProt P02768); settings: cited from earlier work; for relaxivity for the combination with human serum albumin: bound to human serum albumin
[13] = Dy (III)-induced 17O-NMR water shift (d.i.s.), number of inner space water molecules; format: physicochemical
Text: From measuring the d.i.s. (Dy (III)-induced ^17O-NMR water shifts) of the ^17O nuclides in water induced by Dy (III) via ^17O-NMR and graphing the concentration of Dy (III) complexes with respect to the d.i.s., a linear relationship is found, as shown in the following equation: d.i.s.=qΔ[Dy(ligand)n(H2O)q/[H2O]
The slope is qΔ/[H2O] with q being the number of inner space water molecule. […] Because the Dy (III) hydrate is able to combine with 8 water molecules and is in direct proportion to the slope, the value of q (q=0.9) for [Dy(CB-TTDA)]^2− is obtained thereby.

[14] = cited from earlier work
[15] = 20 MHz, 37.0 ± 0.1° C., cited from earlier work
[16] = incubation with zinc (II) for three days; 20 MHz, 37.0 ± 0.1° C.; reported by S. Laurent et al; cited from earlier work
[17] = I = 0.1 M Me4NCl, T = 25.0 ± 0.1° C.

Chain of human serum albumin (P02768 25-609): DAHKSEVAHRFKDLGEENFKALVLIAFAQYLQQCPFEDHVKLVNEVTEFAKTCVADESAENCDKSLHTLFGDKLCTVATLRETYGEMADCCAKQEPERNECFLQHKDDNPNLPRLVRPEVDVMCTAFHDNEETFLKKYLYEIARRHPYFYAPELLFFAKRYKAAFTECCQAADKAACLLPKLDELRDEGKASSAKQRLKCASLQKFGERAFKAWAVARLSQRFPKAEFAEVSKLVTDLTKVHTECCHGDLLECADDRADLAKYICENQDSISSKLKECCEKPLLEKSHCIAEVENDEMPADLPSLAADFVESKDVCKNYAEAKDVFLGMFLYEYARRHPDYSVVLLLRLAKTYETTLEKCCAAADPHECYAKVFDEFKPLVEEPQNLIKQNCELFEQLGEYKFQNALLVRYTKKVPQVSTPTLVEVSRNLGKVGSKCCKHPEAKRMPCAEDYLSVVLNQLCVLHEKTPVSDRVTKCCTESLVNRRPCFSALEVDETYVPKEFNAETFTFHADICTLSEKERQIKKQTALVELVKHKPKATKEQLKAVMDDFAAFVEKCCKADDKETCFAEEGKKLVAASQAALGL

SMILES: O=C([O-])CN1CCN(CCO[C@@H]2O[C@H](CO)[C@H](O)[C@H](O)[C@H]2O)CCN(CC(=O)[O-])CCN(CC(=O)[O-])CC1.[Gd+3] [Egad, 4,7,10-tri(aceticacid)-1-(2-β-galactopyranosylethoxy)-1,4,7,10-tetraazacyclododecane gadolinium (III)]
number of inner space water molecules after hydrolysis by β-galactosidase [12]: 1.2

SMILES: O=C([O-])CN(CCN(CC(=O)[O-])C[C@H](COP(=O)([O-])OC1CCC(c2ccccc2)(c2ccccc2)CC1)N(CC(=O)[O-])CC(=O)[O-])CC(=O)[O-].[Gd+3].[H+].[H+].[H+] [MS-325]
bound relaxivity r1^b (human serum albumin; bound to HSA): 47.0 mM⁻¹ s⁻¹
relaxivity for the combination with human serum albumin (human serum albumin): 47.0 mM⁻¹ s⁻¹
binding constant with HSA, KA (human serum albumin): 3.0±0.2×10^4 M^−1

SMILES: CC1(N(CC(=O)[O-])CC(=O)[O-])CN(CC(=O)[O-])CCN(CC(=O)[O-])C1.[Gd+3] [[Gd(AAZTA)]^−]
relaxivity ([14]; 20 MHz and 298 K): 7.1 mM⁻¹ s⁻¹
relaxivity calculated by simulating the NMRD profile ([14]; τr increased to 30 ns): 100 mM⁻¹ s⁻¹

SMILES: CNC[C@H](O)[C@@H](O)[C@H](O)[C@H](O)CO.CNC[C@H](O)[C@@H](O)[C@H](O)[C@H](O)CO.O=C([O-])CN(CCN(CC(=O)[O-])CC(=O)O)CCN(CC(=O)O)C(COCc1ccccc1)C(=O)[O-].[Gd+3] (stereo not shown) [[Gd(BOPTA)]^2−, gadobenate dimeglumine]
relaxivity ([14]; Fulvio U. et al., 1995): 4.39 mM⁻¹ s⁻¹

SMILES: CNC[C@H](O)[C@@H](O)[C@H](O)[C@H](O)CO.CNC[C@H](O)[C@@H](O)[C@H](O)[C@H](O)CO.O=C([O-])CN(CCN(CC(=O)[O-])CC(=O)O)CCN(CC(=O)[O-])CC(=O)O.[Gd+3] [[Gd(DTPA)]^2−, gadopentetate dimeglumine]
relaxivity ([14]; 20 MHz and 298 K): 3.89 mM⁻¹ s⁻¹
relaxivity ([14]; Fulvio U. et al., 1995): 3.77 mM⁻¹ s⁻¹
calculated conditional stability constant of the gadolinium complex ([1]; pH = 7.4): 18.14
relaxivity for the combination with human serum albumin (human serum albumin): 33.0 mM⁻¹ s⁻¹
relaxivity r1 ([15]; pH 7.6 ± 0.1, P. Caravan et al.): 3.89 ± 0.03 mM⁻¹ s⁻¹
R1^p (t = 3days)/R1^p (t = 0 days) [16]: 49.79%

SMILES: CNC(=O)CN(CCN(CCN(CC(=O)[O-])CC(=O)NC)CC(=O)[O-])CC(=O)[O-].[Gd+3] [[Gd(DTPA-BMA)], bis-methylamide gadodiamide injection]
R1^p (t = 3days)/R1^p (t = 0 days) [16]: 9%

Continued, in another order:

log KML [GdL]/[Gd][L] (thermodynamic stability constant) [1]: 20.28(0.03)
pGd [1]: 15.82
pCu [2]: 13.26
log KCuHL [2, 17]: 5.29(0.03)
log KML [CuL]/[Cu][L] [2, 17]: 17.71(0.02)
log KCuL (pH = 7.4) (conditional stability constant) [2]: 12.25
pCa [3]: 4.09
log KCaHL [3, 17]: 6.24(0.02)
log KML [CaL]/[Ca][L] [3, 17]: 9.52(0.02)
log KCaL (pH = 7.4) (conditional stability constant) [3]: 4.06
pZn [4]: 12.41
log KML [ZnL]/[Zn][L] [4, 17]: 16.06(0.03)
log KZnHL [4, 17]: 8.13(0.04)
log KZnL (pH = 7.4) (conditional stability constant) [4]: 10.60
log K(Gd/Ca) (selectivity constant) [5]: 11.76
log K(Gd/Cu) (selectivity constant) [5]: 2.57
log K(Gd/Zn) (selectivity constant) [5]: 4.22
log Kn^H [H4L]/[H3L][H] [6, 17]: 3.11(0.04)
log Kn^H [HL]/[L][H] [6, 17]: 11.08(0.03)
ΣpKa [6]: 28.59
SMILES: O=C(O)CN(CCN(CC(=O)O)CC1(CN(CC(=O)O)CC(=O)O)CCC1)CC(=O)O [CB-TTDA, 6-carboxymethyl-3-{{[1-(N,N-dicarboxymethyl)-2-aminomethyl]-cyclobut-1-yl}-methyl}-3,6-diazaoctanedioic acid]

pGd [1]: 19.14
pCu [2]: 18.06
log KCuL (pH = 7.4) (conditional stability constant) [2]: 17.00
pCa [3]: 7.46
log KCaL (pH = 7.4) (conditional stability constant) [3]: 6.43
pZn [4]: 15.39
log KZnL (pH = 7.4) (conditional stability constant) [4]: 14.38
log K(Gd/Ca) (selectivity constant) [5]: 11.71
log K(Gd/Cu) (selectivity constant) [5]: 1.08
log K(Gd/Zn) (selectivity constant) [5]: 3.76
ΣpKa [6]: 26.01
SMILES: O=C(O)CN(CCN(CC(=O)O)CC(=O)O)CCN(CC(=O)O)CC(=O)O [DTPA]
log Kn^H [H2L]/[HL][H] [7]: 8.60
log Kn^H [H3L]/[H2L][H] [7]: 4.28
log Kn^H [H4L]/[H3L][H] [7]: 2.64
log Kn^H [HL]/[L][H] [7]: 10.49
log KCuHL [8]: 4.81
log KML [CuL]/[Cu][L] [8]: 21.38
log KCaHL [9]: 6.11
log KML [CaL]/[Ca][L] [9]: 10.75
log KML [ZnL]/[Zn][L] [10]: 18.70
log KZnHL [10]: 5.60
log KML [GdL]/[Gd][L] (thermodynamic stability constant) [11]: 22.46

pGd [1]: 15.25
pCu [2]: 13.06
log KCuL (pH = 7.4) (conditional stability constant) [2]: 12.06
pCa [3]: 6.28
log KCaL (pH = 7.4) (conditional stability constant) [3]: 4.42
pZn [4]: 12.86
log KZnL (pH = 7.4) (conditional stability constant) [4]: 11.32
log K(Gd/Ca) (selectivity constant) [5]: 9.83
log K(Gd/Cu) (selectivity constant) [5]: 2.19
log K(Gd/Zn) (selectivity constant) [5]: 2.93
ΣpKa [6]: 27.44
SMILES: O=C(O)CN(CCCN(CC(=O)O)CC(=O)O)CCN(CC(=O)O)CC(=O)O [TTDA, 3,6,10-tri-(carboxymethyl)-3,6,10-triazadodecanedioic acid]
log Kn^H [H2L]/[HL][H] [7]: 8.92
log Kn^H [H3L]/[H2L][H] [7]: 5.12
log Kn^H [H4L]/[H3L][H] [7]: 2.80
log Kn^H [HL]/[L][H] [7]: 10.60
log KCuHL [8]: 5.69
log KML [CuL]/[Cu][L] [8]: 16.77
log KCaHL [9]: 8.20
log KML [CaL]/[Ca][L] [9]: 9.13
log KML [ZnL]/[Zn][L] [10]: 16.03
log KZnHL [10]: 7.80
log KML [GdL]/[Gd][L] (thermodynamic stability constant) [11]: 18.96

log KML [CaL]/[Ca][L] [3, 17]: 9.52
SMILES: O=C([O-])CN(CC(=O)[O-])CC1(CN(CCN(CC(=O)O)CC(=O)O)CC(=O)O)CCC1.[Ca+2] [[Ca(CB-TTDA)]^3−]

log KML [CuL]/[Cu][L] [2, 17]: 17.71
SMILES: O=C([O-])CN(CCN(CC(=O)[O-])CC1(CN(CC(=O)[O-])CC(=O)[O-])CCC1)CC(=O)[O-].[Cu+2] [[Cu(CB-TTDA)]^3−]

slope of d.i.s. versus concentration of Dy (III) complex ([13]; 17O-NMR): −48.2 ppm/mM
q, number of inner space water molecule ([13]; from slope relative to Dy (III) hydrate with 8 water molecules): 0.9
SMILES: O=C([O-])CN(CCN(CC(=O)[O-])CC1(CN(CC(=O)[O-])CC(=O)[O-])CCC1)CC(=O)[O-].[Dy+3] [[Dy(CB-TTDA)]^2−]

calculated conditional stability constant of the gadolinium complex [1]: 14.25
SMILES: O=C([O-])CN(CCCN(CC(=O)[O-])CC(=O)[O-])CCN(CC(=O)[O-])CC(=O)[O-].[Gd+3] [[Gd(TTDA)]^2−]
relaxivity r1 ([15]; pH 7.5 ± 0.1, Y. M. Wang et al.): 3.85 ± 0.03 mM⁻¹ s⁻¹

log KML [ZnL]/[Zn][L] [4, 17]: 16.06
SMILES: O=C([O-])CN(CC(=O)[O-])CC1(CN(CCN(CC(=O)O)CC(=O)O)CC(=O)O)CCC1.[Zn+2] [[Zn(CB-TTDA)]^3−]
